IC50 and Activity data for 10 compounds are collected here from ChEMBL document CHEMBL3603787, “Antiproliferative and tumor inhibitory studies of 2,3 disubstituted 4-thiazolidinone derivatives” (Bioorg Med Chem Lett, 2015).

Usually IC50 stands for the point on the concentration scale where inhibition reaches its midpoint. Read a high IC50 as lower potency.

The subject of series [1] is REH. Description: Antiproliferative activity against human REH cells after 48 hrs by MTT assay. In kind it is functional, cell-based.
Series [2] is described as follows: Antiproliferative activity against human NALM6 cells after 48 hrs by MTT assay. In kind it is functional, cell-based. The following applies: NALM-6, 48 h. On the technique in general: Formazan colour is commonly taken as a measure of viable cells.
Series [3] has as its system Mus musculus. Kind of series: Toxicity in mouse EAC allografted mouse assessed as effect on organs function at 25 mg/kg. The format is organism-based. Conditions: in vivo.
Series [4] deals with Mus musculus. Kind of series: Toxicity in mouse EAC allografted mouse assessed as effect on morphology and cellular construction of organs at 25 mg/kg. In kind it is organism-based. The following applies: in vivo.
The subject of series [5] is Ehrlich. Description: Antitumor activity against mouse EAC cells allografted in mouse assessed as necrosis and innumerable number of apoptotic cells at 25 mg/kg measured up to 14 days. The format is functional, organism-based.
Series [6] has as its system Ehrlich. Kind of series: Antitumor activity against mouse EAC cells allografted in mouse assessed as reduction of tumor volume at 25 mg/kg measured up to 14 days. In kind it is functional, organism-based.
Series [7] concerns REH. Kind of series: Induction of apoptosis in human REH cells assessed as decrease in mitochondrial membrane potential using green fluorescence of JC-1 dye after 48 hrs. The format is functional, cell-based.
Series [8] concerns REH. Description: Cell cycle arrest in human REH cells assessed as accumulation at sub-G1 phase after 48 hrs using propidium iodide staining. The format is functional, cell-based.
A short description of series [9]: Antiproliferative activity against human HEK293T cells after 48 hrs by MTT assay. The format is cell-based. The following applies: HEK-293T.

SMILES strings stand for the structures. Calls of active or inactive are those of the source. The rule behind the calls is not given here.

As for `O=C1CSC2(CCCCC2)N1c1ccc(OC(F)F)cc1`, the concentration for half-maximal inhibition (IC50) was 41.4 µM in series [1] and greater than 100 µM in [2].
For the compound `COc1ccc(N2C(=O)CSC2c2ccccc2[N+](=O)[O-])cc1` (configuration not stated), the IC50 in series [1] is greater than 100 µM; in series [2] it was 93.4 µM.
As to `CC(C)(C)OC(=O)N1CCC(C2SCC(=O)N2c2ccc(N3CCN(C(=O)OC(C)(C)C)CC3)cn2)CC1` (configuration not stated), the IC50 in [1] is greater than 100 µM; in series [2] it was 82.9 µM.
With `COc1cccc(N2C(=O)CSC2c2ccc(F)cc2)c1` (configuration not stated), the IC50 was greater than 100 µM in series [1] and 49.8 µM in series [2].
As to `Cc1ccccc1N1C(=O)CSC1c1ccc(C(F)(F)F)cc1` (configuration not stated), the IC50 in series [1] stood at 29.6 µM; in series [2] it was 42.6 µM.
The corresponding values for `COc1ccc(N2C(=O)CSC2c2ccc(O)cc2)cc1OC` (configuration not stated) are 69.4 µM and greater than 100 µM.
On to `COc1ccc(N2C(=O)CSC2c2cccnc2)cc1OC` (configuration not stated), for which the IC50 in series [1] and in series [2] was greater than 100 µM each time.
Take `O=C1CSC2(CCCC2)N1c1ncccn1`: the IC50 in series [1] and in series [2] was greater than 100 µM in each case.
Regarding `CC1(c2ccccc2)SCC(=O)N1c1cc(Cl)cc(Cl)c1` (configuration not stated), the half-inhibitory concentration (IC50) in series [1] and in series [2] was greater than 100 µM throughout.
As for `CN(C)c1ccc(C2SCC(=O)N2c2ccc(Br)cc2)cc1` (configuration not stated), the Activity result was “Non-toxic” in [3], “Non-toxic” in [4], “Dose-dependent effect” in series [7] and “Dose-dependent effect” in [8]. The outcome in [5] and in series [6] was Active. For the same compound, the IC50 in series [1] was 11.9 µM; in [9], greater than 80 µM; in [2], 13.2 µM.
